According to article PMC9130233, “An inhibitor of RORγ for chronic pulmonary obstructive disease treatment” (Scientific Reports, 2022):

What was measured:
mouse RORγ LBD = target: T1, mouse RORγ LBD (Mus musculus, UniProt P51450); assay: RORγt-LBD co-activator ligand binding TR-FRET assay, mouse; settings: n = 6
T1 construct: RORγt-LBD region 264-516aa; made in house
Text: To identify small molecule RORγ inhibitors, we conducted in vitro screening using a TR-FRET binding assay to determine the inhibition of RORγ with a series of different compounds. With extensive effort and from hit identification to lead optimization, PCCR-1 was identified[29] (Fig. 1A). Based on the homology of the ligand binding domains (LBD) between different ROR isoforms (hRORα, hRORβ and hRORγ), slight variations have been observed in the LBD regions which possibly lead to differences in competitive binding between the isoforms (Fig. 1B). Simultaneous binding of a tracer and antibody results in an increase in fluorescence resonance energy transfer (FRET), which decreases with displacement of the tracer upon inhibitor binding.
The human and mouse RORγt cDNA clones were obtained from OriGene (MD USA). […] The next day, plate was read on Infinite F500 reader (Magellan Tecan Switzerland). […] The percent activity of each dilution was determined as the ratio of background corrected signal to the background corrected signal of wells receiving only DMSO. IC50 values were determined by fitting percent inhibition data in GraphPad Prism (version-5.01) software.

[1] = system: IL-17 release in human neutrophils; assay: IL-17 release, human neutrophils, PMA + ionomycin; type: cell-based; settings: Neutrophil, n = 4, read-out: potency, IL-17 release inhibition
Protocol: The human neutrophils were isolated by Ficoll-Hypaque by centrifugation of blood from healthy subjects at 700 g for 30 min, followed by erythrocyte lysis with distilled water for 30 s. Cells were washed in PBS and post 1 h treatment with PCCR-1, cells were stimulated with 50 ng/mL PMA and 2 µg/mL Ionomycin. After 18 h the supernatant was collected for IL-17 estimation by ELISA.

mouse RORγ = system: T2, mouse RORγ; assay: Dissociation assay, jump dilution method (TR-FRET), mouse; type: binding
T2 construct: RORγt-LBD region 264-516aa; made in house
Protocol: To understand the inverse agonist behavior at the molecular level, interaction with the nuclear receptor RORγ was analyzed in binding assays by estimating its dissociation constant (Koff) and half-life (t1/2). The binding of a ligand stabilizes the conformation of the LBD while binding of a cofactor modifies receptor activity. Binding reversibility was evaluated by adding an excess of competing ligand in the FRET assay and evaluating the displacement of the tracer with inhibitor. Binding of the PCCR-1 with the LBD caused reduction in FRET on antibody addition forming a GST (Glutathione S-transferases) tagged RORγ-antibody complex. The dissociation assay was performed using the jump dilution method with PCCR-1 at a concentration showing maximum binding potency or IC90. The dissociation was tested on addition of an excess of a competitive ligand, the tracer.

T1 sequence (P51450 264-516): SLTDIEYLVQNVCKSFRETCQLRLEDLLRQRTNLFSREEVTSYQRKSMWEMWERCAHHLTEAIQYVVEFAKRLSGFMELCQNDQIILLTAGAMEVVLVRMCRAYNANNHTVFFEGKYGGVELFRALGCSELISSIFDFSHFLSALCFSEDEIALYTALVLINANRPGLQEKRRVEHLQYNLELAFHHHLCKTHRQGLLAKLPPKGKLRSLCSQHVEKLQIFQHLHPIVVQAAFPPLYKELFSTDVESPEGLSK

For CCn1c(C(C)(C)Oc2ccc(F)cc2F)nc2cc(NC(=O)Cc3ccc(S(=O)(=O)CC)cc3)ccc21 [PCCR-1], the IC50 (mouse RORγ LBD) was 778 nM, the IC50 [1] was 3660 nM and the “dissociation from the target protein” value (mouse RORγ; mouse RORγ, jump dilution) was 20–25%. The “t1/2 (target residence time)” value (mouse RORγ; mouse RORγ, jump dilution, PCCR-1 at IC90) was 4.69 h and the absolute dissociation (mouse RORγ; mouse, till 3 h of measurement) was 50%.
